These results are taken from patent publication US8802700B2 (Vertex Pharmaceuticals Incorporated, priority 2010, dated 2014).

Broadly, the EC50 is the midpoint of the concentration-response curve.

Each structure is given as a SMILES string.

T1 sequence (P13569 with tags, fused parts or gaps DEL508-508): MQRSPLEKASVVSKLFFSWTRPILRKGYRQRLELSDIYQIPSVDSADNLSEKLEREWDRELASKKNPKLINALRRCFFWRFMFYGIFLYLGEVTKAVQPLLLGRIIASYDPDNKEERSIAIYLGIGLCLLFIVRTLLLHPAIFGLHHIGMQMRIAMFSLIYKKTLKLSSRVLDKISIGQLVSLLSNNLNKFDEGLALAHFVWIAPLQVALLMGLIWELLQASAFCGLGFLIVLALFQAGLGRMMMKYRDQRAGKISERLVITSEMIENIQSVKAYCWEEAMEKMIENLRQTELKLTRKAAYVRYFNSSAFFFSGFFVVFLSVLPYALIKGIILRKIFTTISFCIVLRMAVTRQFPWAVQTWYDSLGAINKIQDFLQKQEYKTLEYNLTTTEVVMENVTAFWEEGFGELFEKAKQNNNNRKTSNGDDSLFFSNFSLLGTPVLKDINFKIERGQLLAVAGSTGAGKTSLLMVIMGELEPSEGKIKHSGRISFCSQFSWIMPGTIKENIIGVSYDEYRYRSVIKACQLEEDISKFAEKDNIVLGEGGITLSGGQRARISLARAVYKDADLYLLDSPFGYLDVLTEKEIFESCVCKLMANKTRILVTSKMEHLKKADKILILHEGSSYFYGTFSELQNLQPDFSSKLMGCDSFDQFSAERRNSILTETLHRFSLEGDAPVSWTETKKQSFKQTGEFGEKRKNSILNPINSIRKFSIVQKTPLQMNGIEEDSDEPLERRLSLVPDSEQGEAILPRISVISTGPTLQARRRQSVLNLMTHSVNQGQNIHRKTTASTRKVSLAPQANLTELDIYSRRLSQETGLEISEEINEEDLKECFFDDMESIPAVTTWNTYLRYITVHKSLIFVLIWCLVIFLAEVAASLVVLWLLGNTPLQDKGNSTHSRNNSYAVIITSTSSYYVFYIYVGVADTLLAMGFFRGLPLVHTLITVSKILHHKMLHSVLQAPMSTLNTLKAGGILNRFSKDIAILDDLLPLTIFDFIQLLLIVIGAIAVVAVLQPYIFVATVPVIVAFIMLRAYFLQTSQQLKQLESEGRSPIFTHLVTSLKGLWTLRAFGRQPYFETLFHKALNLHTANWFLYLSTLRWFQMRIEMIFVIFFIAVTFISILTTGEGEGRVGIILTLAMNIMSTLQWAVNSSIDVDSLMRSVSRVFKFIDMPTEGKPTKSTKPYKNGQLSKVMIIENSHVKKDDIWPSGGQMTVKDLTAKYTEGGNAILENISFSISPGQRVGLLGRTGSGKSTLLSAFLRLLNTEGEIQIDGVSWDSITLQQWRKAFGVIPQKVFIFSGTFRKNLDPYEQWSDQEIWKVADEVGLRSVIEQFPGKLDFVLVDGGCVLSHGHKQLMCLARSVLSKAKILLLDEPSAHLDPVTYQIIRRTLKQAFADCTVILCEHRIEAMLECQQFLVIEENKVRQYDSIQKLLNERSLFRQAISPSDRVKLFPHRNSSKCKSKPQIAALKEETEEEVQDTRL

The first experiment addresses T1, ΔF508-CFTR (Homo sapiens, UniProt P13569, DEL508-508).
T1 construct: expressed in transfected cells
Description: Membrane potential optical assay (FRET voltage-sensor dyes, VIPR), identification of potentiator compounds. Type of experiment: cell-based. As to conditions: Table 3; assay not given. The method in brief: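 NIH3T3 mouse fibroblasts stably expressing ΔF508-CFTR, cultured 24 h at 27 °C, were loaded with FRET voltage dyes CC2-DMPE and DiSBAC2(3). Double-addition format: first addition of Cl⁻-free (gluconate) medium with or without compound; membrane-potential change read as fluorescence on VIPR II.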
Consider `O=C(Nc1ccccc1-c1cccc(F)c1)c1c[nH]c2ccccc2c1=O` [Compound 277, N-[2-(3-fluorophenyl)phenyl]-4-oxo-1H-quinoline-3-carboxamide], for which the concentration for a half-maximal effect (EC50) is under 10 µM. On to `CCc1cccc(C(C)C)c1NC(=O)c1c[nH]c2ccccc2c1=O` [Compound 314, N-(2-ethyl-6-isopropyl-phenyl)-4-oxo-1H-quinoline-3-carboxamide], for which the concentration giving a half-maximal response (EC50) is under 10 µM.

Turning to `CC(C)(C)c1cc(C(C)(C)C)c(NC(=O)c2c[nH]c3ccc(C(F)(F)F)cc3c2=O)cc1O` [Compound 515, N-(5-hydroxy-2,4-ditert-butyl-phenyl)-4-oxo-6-(trifluoromethyl)-1H-quinoline-3-carboxamide], the EC50 fell in the range of 10 to 25 µM.

The experiment is the same for the next values; noted with them: Table 3; assay not given; read-out: % Activity (% Efficacy, relative efficacy).
Consider `Cc1ccc(S(=O)(=O)Nc2ccccc2NC(=O)c2c[nH]c3ccccc3c2=O)cc1` [Compound 398, 4-oxo-N-[2-(p-tolylsulfonylamino)phenyl]-1H-quinoline-3-carboxamide], for which the Emax was 25 to 100%.

Regarding `O=C(Nc1ccc(C2CCCCC2)c(O)c1)c1c[nH]c2cccc(O)c2c1=O` [Compound 522, N-(4-cyclohexyl-3-hydroxy-phenyl)-5-hydroxy-4-oxo-1H-quinoline-3-carboxamide], the Emax fell in the range of 25 to 100%.

With `O=C(Nc1ccc(OC(F)F)cc1)c1c[nH]c2ccccc2c1=O` [Compound 360, N-[4-(difluoromethoxy)phenyl]-4-oxo-1H-quinoline-3-carboxamide], the Emax lay within 25 to 100%. With `Cc1cccc(NC(=O)c2c[nH]c3ccccc3c2=O)c1C` [Compound 61, N-(2,3-dimethylphenyl)-4-oxo-1H-quinoline-3-carboxamide], the Emax fell in the range of 25 to 100%.

With `O=C(Nc1ccccc1-c1ccccc1)c1c[nH]c2ccccc2c1=O` [Compound 461, 4-oxo-N-(2-phenylphenyl)-1H-quinoline-3-carboxamide], the Emax lay in the range of 25 to 100%. On the same count and under the same terms, the value for `CC(C)c1ccc(N)cc1NC(=O)c1c[nH]c2ccccc2c1=O` [Compound 101, N-(5-amino-2-isopropyl-phenyl)-4-oxo-1H-quinoline-3-carboxamide] was 25 to 100%. For the compound `O=C(Nc1ccc(N2CCC[C@H]2CO)cc1C(F)(F)F)c1c[nH]c2ccccc2c1=O` [Compound 634, (S)-N-(4-(2-(hydroxymethyl)pyrrolidin-1-yl)-2-(trifluoromethyl)phenyl)-4-oxo-1,4-dihydroquinoline-3-carboxamide], the Emax lay within 25 to 100%.

For `CSc1ccc(-c2ccccc2NC(=O)c2c[nH]c3ccccc3c2=O)cc1` [Compound 223, N-[2-(4-methylsulfanylphenyl)phenyl]-4-oxo-1H-quinoline-3-carboxamide], the Emax is 25 to 100%. Still for that read-out and setting: with `COc1ccccc1NC(=O)c1c[nH]c2ccccc2c1=O` [Compound 80, N-(2-methoxyphenyl)-4-oxo-1H-quinoline-3-carboxamide] the figure was 25 to 100%. Same read-out and setting: the value for `COC(=O)[C@@H]1CCCCN1c1ccc(NC(=O)c2c[nH]c3ccccc3c2=O)c(C(F)(F)F)c1` [Compound 715, (S)-methyl 1-(4-(4-oxo-1,4-dihydroquinoline-3-carboxamido)-3-(trifluoromethyl)phenyl)piperidine-2-carboxylate] was 25 to 100%; that for `O=C(Nc1cc(Cl)cc(NS(=O)(=O)CCN2CCOCC2)c1)c1c[nH]c2ccccc2c1=O` [Compound 46, N-[3-chloro-5-(2-morpholinoethylsulfonylamino)phenyl]-4-oxo-1H-quinoline-3-carboxamide] was 25 to 100%; that for `O=C(Nc1ccccc1-c1cccc(F)c1)c1c[nH]c2ccccc2c1=O` [Compound 277, N-[2-(3-fluorophenyl)phenyl]-4-oxo-1H-quinoline-3-carboxamide] was over 100%. Regarding `O=C(Nc1ccc2nccnc2c1)c1c[nH]c2ccccc2c1=O` [Compound 443, 4-oxo-N-quinoxalin-6-yl-1H-quinoline-3-carboxamide], the Emax was under 25%. In the case of `O=C(Nc1ccc(C2CCCCC2)c(O)c1)c1c[nH]c2ccccc2c1=O` [Compound 564, N-(4-cyclohexyl-3-hydroxy-phenyl)-4-oxo-1H-quinoline-3-carboxamide], the Emax was in the range of 25 to 100%. The same measure, in the same setting: with `Cn1c(=O)oc2ccc(NC(=O)c3c[nH]c4ccccc4c3=O)cc21` [Compound 474, N-(3-methyl-2-oxo-3H-benzooxazol-5-yl)-4-oxo-1H-quinoline-3-carboxamide] the figure was under 25%; with `CCOC(=O)c1cc2cc[nH]c2cc1NC(=O)c1c[nH]c2ccccc2c1=O` [Compound 188, 6-[(4-oxo-1H-quinolin-3-yl)carbonylamino]-1H-indole-5-carboxylic acid ethyl ester], 25 to 100%.

On to `Cc1cc2cc(NC(=O)c3c[nH]c4ccccc4c3=O)ccc2[nH]1` [Compound 230, N-(2-methyl-1H-indol-5-yl)-4-oxo-1H-quinoline-3-carboxamide], for which the Emax is 25 to 100%.

`CC1(c2ccc(NC(=O)c3c[nH]c4cccc(O)c4c3=O)cc2O)CCCCC1` [Compound 606, 5-hydroxy-N-[3-hydroxy-4-(1-methylcyclohexyl)-phenyl]-4-oxo-1H-quinoline-3-carboxamide]: the Emax is under 25%. Still for that read-out and setting: the value for `CC(C)(C)c1ccc(NC(=O)c2c[nH]c3ccccc3c2=O)c(C(C)(C)C)c1O` [Compound 594, N-(3-hydroxy-2,4-ditert-butyl-phenyl)-4-oxo-1H-quinoline-3-carboxamide] was over 100%. Still for that read-out and setting: with `CC(C)(C)c1cc(F)c(NC(=O)c2c[nH]c3cc(C#N)ccc3c2=O)cc1O` [Compound 677, 7-cyano-N-(2-fluoro-5-hydroxy-4-tert-butyl-phenyl)-4-oxo-1H-quinoline-3-carboxamide] the figure was 25 to 100%. As to `CC(C)(C)c1cc(C(F)(F)F)c(NC(=O)c2c[nH]c3ccc(F)cc3c2=O)cc1O` [Compound 509, 6-fluoro-N-[5-hydroxy-4-tert-butyl-2-(trifluoromethyl)phenyl]-4-oxo-1H-quinoline-3-carboxamide], the Emax lay in the range of 25 to 100%. On the same count and under the same terms, with `CCCc1ccc(NC(=O)c2c[nH]c3ccccc3c2=O)cc1NC(=O)OCC` [Compound 382, [5-[(4-oxo-1H-quinolin-3-yl)carbonylamino]-2-propyl-phenyl]aminoformic acid ethyl ester] the figure was 25 to 100%; with `Cc1ccc(C(F)(F)F)cc1NC(=O)c1c[nH]c2ccccc2c1=O` [Compound 577, N-[2-methyl-5-(trifluoromethyl)phenyl]-4-oxo-1H-quinoline-3-carboxamide], 25 to 100%; with `CCc1cccc(C(C)C)c1NC(=O)c1c[nH]c2ccccc2c1=O` [Compound 314, N-(2-ethyl-6-isopropyl-phenyl)-4-oxo-1H-quinoline-3-carboxamide], 25 to 100%. Still for that read-out and setting: with `CC(C)c1ccc(NC(=O)OC(C)(C)C)cc1NC(=O)c1c[nH]c2ccccc2c1=O` [Compound 60, [4-isopropyl-3-[(4-oxo-1H-quinolin-3-yl)carbonylamino]phenyl]aminoformic acid tert-butyl ester] the figure was 25 to 100%; with `COc1cccc(OC)c1-c1cc2cc[nH]c2cc1NC(=O)c1c[nH]c2ccccc2c1=O` [Compound 404, N-[5-(2,6-dimethoxyphenyl)-1H-indol-6-yl]-4-oxo-1H-quinoline-3-carboxamide], 25 to 100%; with `CC(C)c1ccc(NC(=O)c2c[nH]c3c(F)cccc3c2=O)c(C(F)(F)F)c1` [Compound 573, 8-fluoro-N-[4-isopropyl-2-(trifluoromethyl)phenyl]-4-oxo-1H-quinoline-3-carboxamide], 25 to 100%. Still for that read-out and setting: the value for `CCCCc1ccccc1NC(=O)c1c[nH]c2ccccc2c1=O` [Compound 336, N-(2-butylphenyl)-4-oxo-1H-quinoline-3-carboxamide] was 25 to 100%; that for `CC(C)(C)c1cc(C(C)(C)C)c(NC(=O)c2c[nH]c3ccc(C(F)(F)F)cc3c2=O)cc1O` [Compound 515, N-(5-hydroxy-2,4-ditert-butyl-phenyl)-4-oxo-6-(trifluoromethyl)-1H-quinoline-3-carboxamide] was under 25%.
